Patent US10960015B2, “Effervescent formulation based on pyridoxal-5-phosphate” (Assistance Publique-Hopitaux De Paris, priority 2015, dated 2021)

Experiments:
Assay type in all cases: physicochemical
[1] = Tapped density (volumenometer, PE 2.9.34); conditions: after tamping; for Hausner ratio: criterion <1.20; for Carr index: criterion <20%
Experimental: B. Tapped Density (PE 2.9.34)
The tests were performed on a volumenometer (Erweka® GmbH SVM12). The Carr and Hausner indices can be determined by this test. The tests performed on the raw materials were carried out on 100 g of powder, and on 20 g for mixtures (batches A, F, G, H, I, J).

[2] = Angle of repose (PE 2.9.36); conditions: mixing time 5 minutes
Experimental: (§1) A. Funnel Flow and Angle of Repose (PE 2.9.16-2.9.36)
(§2) The tests were performed on an Erweka® flow tester on all of the raw materials and mixtures tested using a standardized funnel. The tests performed on the raw materials were carried out on 100 g of powder, and on 20 g for mixtures (batches A, F, G, H, I, J).
Determination of the angle of repose was performed on the powders alone and on the mixtures, as defined in the European Pharmacopeia. Different mixing times of 5, 10 and 30 minutes were tested on the mixtures (batches of F to J) to determine the influence of the mixing time on the flow (Table IV).

[3] = Funnel flow (Erweka flow tester, PE 2.9.16); conditions: standardized funnel; 100 g raw materials, 20 g mixtures
Experimental: as §1, §2

[4] = Laser diffraction granulometry (dry mode, Mastersizer S)
Experimental: Laser Diffraction Granulometry (European Pharmacopeia (PE), Current Edition, 2.9.31)
Analysis of the granulometric distribution was performed in dry mode on a Mastersizer S laser granulometer (Malvern®). The detection range of this instrument in dry mode is from 0.05 μm to 900 μm. This study was performed on 20 g of active principle, at a pressure of 1, 2 and 3 bar. Each test was performed 3 times for each pressure.

Carr index, interpretation [1] | Compactibility (V10-V500) [1] [mL] | Hausner ratio, interpretation [1] | Hausner ratio [1] | Carr index [1] [%] | Angle of repose [2] [°] | Angle of repose, Interpretation [2] | Flow [3] | d50 ([4]; dry mode) [μm] | particle size ([4]; dry mode, 1, 2 and 3 bar) | Compound
Excellent | 3 | Excellent | 1.10 | 8.70 | 40.5 | Quite | 22 s |  |  | OC[C@H]1O[C@@](CO)(O[C@H]2O[C@H](CO)[C@@H](O)[C@H](O)[C@H]2O)[C@@H](O)[C@@H]1O [Batch D, Sucrose]
Excellent | 9 | Excellent | 1.10 | 9.05 | 43.6 | Passable | 9.6 s |  |  | OC[C@@H](O)[C@@H](O)[C@H](O)[C@@H](O)CO [Batch E, Sorbitol]
 |  |  |  |  |  |  | no flow | 11 | below 100 μm | Cc1ncc(COP(=O)(O)O)c(C=O)c1O [Batch A, Pyridoxal-5-phosphate]
Good | 8 | Good | 1.13 | 11.25 | 45 | Passable | 23.8 s |  |  | Isomalt [Batch C]
Excellent | 0 | Excellent | 1.02 | 7.48 | 38.3 | Quite | 27.1 s |  |  | OC[C@@H](O)[C@@H](O)[C@H](O)[C@H](O)CO [Batch Q, Mannitol]
